Test results from PubChem BioAssay (NCI).
Where “and” joins values, the source holds several entries; their conditions need not be identical. Identical values can stand only once.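 All cell lines were grown in 96-well plates and treated with compound for 48 hours. At the GI50, growth is halved. The concentration for full growth arrest is given as TGI.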 Numbered stars: 1 amine (or outer) side, 2 acyl side, 3 side chain; on linkers, the order of the positions; unused ones are H or OH. Bridge positions count the residues as written; N and C are the ends. Square brackets hold non-standard residues; d marks the D form. Peptide text beside a SMILES is read from it. I, II: the chains in the order shown. Actinocin(1to9) = Cc1c2oc3c(C)ccc(C(=O)[*:2])c3nc-2c(C(=O)[*:1])c(N)c1=O; NMeY = CN[CH](Cc1ccc(O)cc1)C(=O)O; Sar = CNCC(=O)O

How the values were obtained:
Assay in all cases: DTP human tumour cell line panel, 48 h
SNB-75 CNS = tested on: SNB-75 CNS
K-562 leukemia = tested on: K-562 leukemia
KM12 colon = tested on: KM12 colon
UACC-62 melanoma = tested on: UACC-62 melanoma
A549 NSCLC = tested on: A549 NSCLC
SF-539 CNS = tested on: SF-539 CNS
MOLT-4 leukemia = tested on: MOLT-4 leukemia
NCI-H226 lung = tested on: NCI-H226 lung
SK-MEL-5 melanoma = tested on: SK-MEL-5 melanoma
MCF7 breast = tested on: MCF7 breast

SMILES	TGI (SNB-75 CNS) [µM]	TGI (K-562 leukemia) [µM]	TGI (KM12 colon) [µM]	TGI (UACC-62 melanoma) [µM]	TGI (A549 NSCLC)	TGI (SF-539 CNS) [µM]	TGI (MOLT-4 leukemia) [µM]	TGI (NCI-H226 lung) [µM]	TGI (SK-MEL-5 melanoma) [µM]	GI50 (K-562 leukemia)	GI50 (KM12 colon) [µM]	GI50 (A549 NSCLC) [µM]	GI50 (MCF7 breast)	TGI (MCF7 breast)	GI50 (MOLT-4 leukemia) [µM]	GI50 (NCI-H226 lung) [µM]	GI50 (SNB-75 CNS) [µM]	GI50 (UACC-62 melanoma) [µM]	GI50 (SF-539 CNS) [µM]	GI50 (SK-MEL-5 melanoma) [µM]
COc1ccc2c(c1)CCc1c-2n[nH]c1-c1[nH]nc2c1CCc1cc(OC)ccc1-2	61.3	> 100	> 100	> 100	> 100 µM	63.2	> 100	85.9	> 100	–	–	–	–	–	–	–	–	–	–	–
C[C@H]1C=C2C(=O)O[C@H]3CC[C@@H](C1)[C@@]23O	19.5	8.26	12.7	13.2	34.3 µM	4.25	> 100	29.3	16.6	–	–	–	–	–	–	–	–	–	–	–
CCOC(=O)C1=C(C)NC(c2ccco2)=C(C#N)C1c1cccc([N+](=O)[O-])c1 (stereo unspecified)	–	–	16	2.27	–	0.0128	–	3.43	0.311	0.0194 µM	0.035	0.0293	0.0339 µM	20.8 µM	0.0445	0.0137	–	–	–	–
CC(=O)NN1C(=O)C(Cc2ccccc2)c2ccccc21 (stereo unspecified)	> 100	> 100	> 100	> 100	> 100 µM	> 100	> 100	> 100	> 100	–	–	–	–	–	–	–	–	–	–	–
CCN(Cc1c(F)cccc1Cl)c1ccc(CO)c(Cl)c1	25.5	12.6	25.8	0.269	16.6 µM	29.8	39.8	–	20.1	0.2 µM	11.8	0.573	< 0.02 µM	14.4 µM	17.1	–	11.1	0.0419	15.5	0.5
COc1cc(/C=C2\CCCC3=C2N=C2SC(C)=NN2C3c2cc(OC)c(OC)c(OC)c2)cc(OC)c1OC (stereo unspecified)	–	> 100	> 100	–	> 100 µM	–	> 100	–	–	0.42 µM	0.322	> 100	0.319 µM	> 100 µM	0.391	–	–	–	–	–
Nc1c2ccccc2nc2c(C(=O)Nc3ccc(S(N)(=O)=O)cc3)cccc12	> 100	> 100	> 100	> 100	> 100 µM	> 100	58.6	> 100	> 100	–	–	–	–	–	–	–	–	–	–	–
CN1CCN(CCCOc2cc(O)c3c(=O)cc(-c4ccccc4)oc3c2)CC1	–	21.9	54.7	29.9	91.1 µM	33.1	38.8	37	23.1	6.98 µM	22	28.8	15.3 µM	30 µM	17.3	19.5	–	16.3	17.2	10.3
CCCCN(CCCC)CC(C(C)=O)C(c1ccccc1)c1c(O)c2ccccc2oc1=O (stereo unspecified)	76.3	> 100	> 100	> 100	> 100 µM	> 100	> 100	> 100	> 100	–	–	–	–	–	–	–	–	–	–	–
COc1ccc(OC(C)C(=O)O)c2c(=O)ccccc12 (stereo unspecified)	> 100	> 100	> 100	> 100	> 100 µM	> 100	> 100	> 100	> 100	–	–	–	–	–	–	–	–	–	–	–
CC(=O)Oc1ccc2c(c1)C(=O)c1nc(C)c(C)nc1C2=O	> 100	> 100	> 100	38.8	> 100 µM	55.4	> 100	> 100	30.1	–	–	–	–	–	–	–	–	–	–	–
CC1c2[nH]c3ccccc3c2CCN1O (stereo unspecified)	> 100	> 100	> 100	> 100	> 100 µM	> 100	> 100	> 100	> 100	–	–	–	–	–	–	–	–	–	–	–
C=C1C[C@@H]2C[C@@H](C)CC(O)[C@]2(CCCN)C1O (stereo partly specified)	> 100	> 100	> 100	> 100	> 100 µM	> 100	> 100	> 100	> 100	–	–	–	–	–	–	–	–	–	–	–
c1ccc(OC2=NC3=S(S2)SC(Oc2ccccc2)=N3)cc1	59.5	38	34.4	37.6	47.6 µM	54.6	31	90.4	36.3	–	–	–	–	–	–	–	–	–	–	–
CN(N)c1nc(N)c(C#N)c(C#N)c1C#N	> 10	> 10	> 10	> 10	> 10 µM	> 10	> 10	–	> 10	–	–	–	–	> 10 µM	–	–	–	–	–	–
CC(=O)[O-].N.N.N.N.[Co+3].[O-][Cl+3]([O-])([O-])[O-].[OH3+]	> 100	> 100	> 100	> 100	> 100 µM	–	> 100	–	> 100	> 100 µM	> 100	> 100	–	–	> 100	–	55.1	> 100	–	> 100
COc1ccc([C@@H]2OC(=O)C3C2C(=O)O[C@H]3c2ccc(OC)c(OC)c2)cc1OC (stereo partly specified)	> 100	> 100	> 100	> 100	> 100 µM	> 100	> 100	> 100	> 100	–	–	–	–	–	–	–	–	–	–	–
COc1ccc(CC2C(=O)OC(C)C(NC(=O)c3c4nc5c(C(=O)NC6C(=O)NC(C(C)C)C(=O)N7CCCC7C(=O)N(C)CC(=O)N(C)C(Cc7ccc(OC)cc7)C(=O)OC6C)ccc(C)c5oc-4c(C)c(=O)c3N)C(=O)NC(C(C)C)C(=O)N3CCCC3C(=O)N(C)CC(=O)N2C)cc1 (stereo unspecified) (I: TVP[Sar][NMeY](Me) / II: TVP[Sar][NMeY](Me); ester I:1-I:C, II:1-II:C; linker I:N-II:N via Actinocin(1to9); configuration not given here)	0.158	< 0.01	–	–	0.29 µM and > 1 µM	–	–	> 0.213	–	< 0.01 µM and 0.0039 µM	–	–	< 0.01 µM and 0.003 µM	1.29 µM and > 1 µM	0.00152	–	–	–	–	–
CC(=O)[CH-]C(=O)c1ccccc1.CC(=O)[CH-]C(=O)c1ccccc1.[O-]c1ccc2c(c1)OCO2.[O-]c1ccc2c(c1)OCO2.[Ti+4]	66.1	> 100	38.2	> 100	> 100 µM	> 100	51.5	85	78.6	31.5 µM	16.2	41.7	–	–	15.4	24.9	19.2	47.5	28.4	29.1
